Molecular target: T1, HIV protease (Human immunodeficiency virus type 1 group M subtype B, UniProt P04585)
T1 construct: and purified protease
Assay: HIV Protease Assay
Format: biochemical
Details: 10 μM inhibitor, 4% DMSO, 450 μM substrate, pH 5.5, 30 minutes at 37° C., RP-HPLC
Summary of the method: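 At a single final concentration of 10 μM (4% DMSO), inhibitors were added to a 30-minute, 37° C reaction of purified enzyme with 450 μM H2N-Val-Ser-Gln-Asn-(β-naphthyl-alanine)-Pro-Val-Ile-OH at pH 5.5 (sodium acetate, BSA). Hydrolysis was quantified by reverse-phase HPLC with 220 nm detection after acid quench.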

Row | HIV Protease % Inhibition at 10 μM [%] | Compound
1 | 98 | CC(C)(C)OC(=O)N[C@@H](Cc1ccccc1)[C@H](O)CNC[C@@H](O)[C@H](Cc1ccccc1)NC(=O)C1(O)CCCCC1(C)C (single isomer, unassigned; isomer b) [Compound 362, [1S-[1R*,2S*(2S*,3R*)]]-[3-[[3-[[2,2-Dimethyl-1-hydroxycyclohexyl)carbonyl]amino]-2-hydroxy-4-phenylbutyl]amino]-2-hydroxy-1-(phenylmethyl) propyl]carbamic acid, 1,1-dimethylethyl ester, isomer B]
2 | 65 | CC(C)(C)OC(=O)N[C@@H](Cc1ccccc1)[C@H](O)CNC[C@@H](O)[C@H](Cc1ccccc1)NC(=O)C(CCO)C(C)(C)C (single isomer, unassigned; isomer b) [Compound 313, [1S-[1R*, 2S* (2S*, 3R*)][-[3-[[3-[[2-(1,1-Dimethylethyl)-4-hydroxy-1-oxobutyl]amino]-2-hydroxy-4-phenylbutyl]amino]-2-hydroxy-1-(phenylmethyl)propyl]carbamic acid, 1,1-dimethylethyl ester, isomer B]
3 | 99 | CNC(=O)C(O)(C(=O)N[C@@H](Cc1ccccc1)[C@H](O)CNC[C@@H](O)[C@H](Cc1ccccc1)NC(=O)OC(C)(C)C)C(C)(C)C (single isomer, unassigned; isomer b) [Compound 385, [1S-[1R*,2S*(2S*, 3R*)]]-[3-[[3-[[2-Hydroxy-3,3-dimethyl-2-[(methylamino)carbonyl]-1-oxobutyl]amino]-2-hydroxy-4-phenylbutyl]amino]-2-hydroxy-1-(phenylmethyl)propyl]carbamic acid, 1,1-dimethylethyl ester, isomer B]
4 | 69 | CC(C)(C)OC(=O)N[C@@H](Cc1ccccc1)[C@H](O)CNC[C@@H](O)[C@H](Cc1ccccc1)NC(=O)C1NC(=O)CC1(C)C (single isomer, unassigned) [Compound 266, [1S-[1R*,2S*(2S*,3R*)]]-[3-[[3-[[(3,3-Dimethyl-5-oxo-2-pyrrolidinyl)carbonyl]amino]-2-hydroxy-4-phenylbutyl]amino]-2-hydroxy-1-(phenylmethyl)propyl]carbamic acid, 1,1-dimethylethyl ester]
5 | 28 | COC(=O)NC(C)(C(=O)N[C@@H](Cc1ccccc1)[C@H](O)CNC[C@@H](O)[C@H](Cc1ccccc1)NC(=O)OC(C)(C)C)C(C)(C)C (single isomer, unassigned; isomer b) [Compound 374, [1S-[1R*,2S*(2S*, 3R*)]]-[1-[[[3-[[3-[[(1,1-Dimethylethoxy)carbonyl]amino]-2-hydroxy-4-phenylbutyl]amino]-2-hydroxy-1-(phenylmethyl)propyl]amino]carbonyl]-1,2-dimethylpropyl]carbamic acid, methyl ester, isomer B]

Same assay, conditions: pH 5.5, 10 μM inhibitor, 4% DMSO, 450 μM substrate, pH 5.5, 30 minutes at 37° C., RP-HPLC; read-out: HIV Protease % Inhibition at 10 μM

Row | inhibition at 10 µM [%] | Compound
6 | 85 | CC(C)(C)OC(=O)N[C@@H](Cc1ccccc1)[C@H](O)CNC[C@@H](O)[C@H](Cc1ccccc1)NC(=O)O[C@@H]1COC[C@H]1O [Compound 317, [1S-(1R*,2S*), (3R-trans)l-[Iminobis[2-hydroxy-1-(phenylmethyl)-3,1-propanediyl]]bis[carbamic acid], 4-hydroxy-3-tetrahydrofuranyl 1,1-dimethylethyl ester]
7 | 99 | CNC(=O)C(O)(C(=O)N[C@@H](Cc1ccccc1)[C@H](O)CNC[C@@H](O)[C@H](Cc1ccccc1)NC(=O)OC(C)(C)C)C(C)(C)C (single isomer, unassigned; isomer a) [Compound 384, [1S-[1R*,2S*(2S*, 3R*)]]-[3-[[3-[[2-Hydroxy-3,3-dimethyl-2-[(methylamino)carbonyl]-1-oxobutyl]amino]-2-hydroxy-4-phenylbutyl]amino]-2-hydroxy-1-(phenylmethyl)propyl]carbamic acid, 1,1-dimethylethyl ester, isomer A]
8 | 35 | CC(C)(C)OC(=O)N[C@@H](Cc1ccccc1)[C@H](O)CNC[C@@H](O)[C@H](Cc1ccccc1)NS(=O)(=O)C(C)(C)C [Compound 183, [1S-[1R*,2S*(2S*,3R*)]]-[3-[[3-[[(2,2-Dimethylethyl)sulfonyl]amino]-2-hydroxy-4-phenylbutyl]amino]-2-hydroxy-1-(phenylmethyl)proyl]carbamic acid, 1,1-dimethylethyl ester]
9 | 67 | CC(C)(C)OC(=O)N[C@@H](Cc1ccccc1)[C@H](O)CNC[C@@H](O)[C@H](Cc1ccccc1)NC(=O)OC(CO)c1cccnc1 (stereo partly drawn) [Compound 277, [R-(R*,S*)]-[Iminobis[2-hydroxy-1-(phenylmethyl)-3,1-propanediyl)]biscarbamic acid, 1,1-dimethylethyl-2-hydroxy-1-(3-pyridinyl)ethyl ester]
10 | 85 | CC(C)(C)OC(=O)N[C@@H](Cc1ccccc1)[C@H](O)CNCC(C)(O)[C@H](Cc1ccccc1)NC(=O)OC(C)(C)C (stereo partly drawn) [Compound 192, [1S-[1R*,2S*(3R*)]]-[3-[[3-[[(1,1-Dimethylethoxy)carbonyl]amino]-2-hydroxy-2-methyl-4-phenylbutyl]amino]-2-hydroxy-1-(phenylmethyl)propyl]amino]carbamic acid, 1,1-dimethylethyl ester]
11 | 41 | CC(C)(C)OC(=O)N[C@@H](Cc1ccccc1)[C@H](O)CNC[C@@H](O)[C@H](Cc1ccccc1)N[S+]([O-])C(C)(C)C (stereo partly drawn) [Compound 182, [1S-[1R*,2S*(2S*,3R*)]]-[3-[[(1,1-Dimethylethyl)-sulfinyl]amino-2-hydroxy-4-phenylbutyl]amino]2-hydroxy-1-(phenylmethyl)propyl]carbamic acid, 1,1-dimethylethyl ester]
12 | 89 | CC(C)(C)OC(=O)N[C@@H](Cc1ccccc1)[C@H](O)CNC[C@@H](O)[C@H](Cc1ccccc1)NC(=O)[C@@H](O)C(C)(C)C [Compound 335, [1S-[1R*,2S*[2S*,3R*(R*)]]]-[3-[[3-[(2-Hydroxy-3,3-dimethyl-1-oxobutyl)amino]-2-hydroxy-4-phenylbutyl]amino]-2-hydroxy-1-(phenylmethyl)propyl]carbamic acid, 1,1-dimethylethyl ester]
13 | 58 | CC(C)[C@H](NC(=O)OCc1ccccc1)C(=O)N[C@@H](Cc1ccccc1)[C@@H](O)CNC[C@@H](O)[C@H](Cc1ccccc1)NC(=O)OC(C)(C)C [Compound 115, [S-[1R*,2R*(2S*.3R*)]-N-[3-[[3-[[(1,1-Dimethylethoxy)carbonyl]amino]-2-hydroxy-4-phenylbutyl]amino]-2-hydroxy-1-phenylmethyl)propyl]-N^2-[(phenylmethoxy)-carbonyl]-L-valinamide]
14 | 90 | CC(C)(C)OC(=O)N[C@@H](Cc1ccccc1)[C@H](O)CNC[C@@H](O)[C@H](Cc1ccccc1)NC(=O)OC(C)(C)COCc1ccccc1 [Compound 157, [1S-(1R*,2S*)]-[Iminobis[2-hydroxy-1-(phenylmethyl)-3,1-propanediyl)]biscarbamic acid, 1,1-dimethylethyl 1,1-dimethyl-2-(phenylmethoxy)-ethyl ester]
15 | 86 | CC(C)(C)OC(=O)N[C@@H](Cc1ccccc1)[C@H](O)CNC[C@@H](O)[C@H](Cc1ccccc1)NC(=O)CC(O)CO (stereo partly drawn) [Compound 255, [1S-[1R*,2S*(2S*,3R*)]]-[3-[[3-[(3,4-Dihydroxy-1-oxo-butyl)amino]-2-hydroxy-4-phenylbutyl]amino]-2-hydroxy-1-(phenylmethyl)propyl]carbamic acid, 1,1-dimethylethyl ester]
16 | 71 | CC(C)(C)OC(=O)N[C@@H](Cc1ccccc1)[C@H](O)CNC[C@@H](O)[C@H](Cc1ccccc1)NC(=O)C(OCc1ccccc1)C(C)(C)C (stereo partly drawn) [Compound 106, [1S-[1R*,2S* (2S*,3R*)]]-3-[[3-[[3,3-Dimethyl-1-oxo-2-(phenylmethoxy)butyl)butyl]amino]-2-hydroxy-4-phenylbutyl]amino]-2-hydroxy-1-(phenyl-methyl)propyl]carbamic acid, 1,1-dimethylethyl ester]
17 | 53 | CC(C)(C)OC(=O)N[C@@H](Cc1ccccc1)[C@H](O)CNC[C@@H](O)[C@H](Cc1ccccc1)NC(=O)COc1cccc2ccccc12 [Compound 63, [1S-[1R*,2S*(2S*,3R*)]]-[2-Hydroxy-3-[[2-hydroxy-3-[[(1-naphthalenyloxy)-acetyl]amino]-4-phenylbutyl]amino]-1-(phenyl-methyl)propyl]carbamic acid, 1,1-dimethylethyl ester]
18 | 0 | CC(C)(C)OC(=O)N[C@@H](Cc1ccccc1)[C@H](O)CN[C@@H](Cc1ccccc1)C(O)CNC(=O)OCc1ccccc1 (stereo partly drawn) [Compound 186, [3S-[3R*,2(R*,S*) [2S*,3R*)]-3-[[3-(1,1-Dimethylethoxy)carbonyl]amino]-2-hydroxy-4-phenylbutyl]amino]-2-hydroxy-4-phenylbuty 1]carbamic acid, phenylmethyl ester]
19 | 80 to 99 | CC(C)(C)OC(=O)N[C@@H](Cc1ccccc1)[C@H](O)CNC[C@@H](O)[C@H](Cc1ccccc1)NC(=O)[C@@H](NC(=O)OCc1ccccc1)c1ccccc1 [Compound 94, [1S-[1R* [1R*,2S* (2S*,3R*)]]]-[2-[[3-[[3-[[(1,1-Dimethylethoxy)carbonyl]amino]-2-hydroxy-4-phenylbutyl]amino]-2-hydroxy-1-(phenylmethyl)propyl]amino]-2-oxo-1-phenylethyl]carbamic acid, phenylmethyl ester]
20 | 98 | CCc1ccccc1CC(NC(=O)OC(C)(C)C)C(O)CNCC(O)C(Cc1ccccc1)NC(=O)OC(C)(C)C (stereo not drawn) [Compound 371]

Same assay, conditions: pH 5.5, read-out: HIV Protease % Inhibition at 10 μM

Row | inhibition at 10 µM [%] | Compound
21 | 49 | CC(C)(C)OC(=O)N[C@@H](Cc1ccccc1)[C@H](O)CNC[C@@H](O)[C@H](Cc1ccccc1)NC(=O)OC(C)(C)CN [Compound 216, [1S-(1R*,2S*)]-[Iminobis[2-hydroxy-1-(phenylmethyl)-3,1-propanediyl]]biscarbamic acid. 2-amino-1,1-dimethylethyl-1,1-dimethylethyl ester]

Source: US5760036A, “Aminediol protease inhibitors” (E. R. Squibb & Sons, Inc., priority 1995, dated 1998)
